Measurements reported in patent US7998713B2, “Treatment of biomass to obtain ethanol” (E. I. du Pont de Nemours and Company, priority 2005, dated 2011).

Tested on: Z. mobilis strain 8b
Assay: Effect of acetamide and acetic acid on Zymomonas growth (toxicity test in shake flasks)
Format: cell-based, Zymomonas mobilis
Conditions: pH 6.0, 30° C., 150 rpm, FIG. 1
From the text: Fermentation medium was composed of 10 g/L yeast extract, 2 g/L KH2PO4, 70 g/L glucose, 40 g/L xylose and 0.1 M MES buffer.

[1] = medium supplemented with 6 g/L acetamide vs unsupplemented control
[2] = medium supplemented with 7.2 g/L acetic acid vs unsupplemented control

SMILES	final density of Z. mobilis [1]	growth rate of Z. mobilis [1]	cell yield (as measured by dry cell mass) [2]	growth rate of Z. mobilis [2]
CC(N)=O [acetamide]	no influence	no influence		
CC(=O)O [acetic acid]			lower cell yield	reduced growth rate
